# Read-outs that look alike come from different tables or passages of the source.
# What was measured:
# [1] = tested on: LFA-1 dependent aggregation of JY cells; experiment: JY cell homotypic aggregation assay (PMA-stimulated); format: cell-based, human
# Summary of the method: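 Homotypic aggregation of EBV-transformed JY cells, stimulated by phorbol myristate acetate ([…]), scored visually over time in compound presence at 2·10^5 cells/well in serum-supplemented RPMI 1640. Result given as μM concentration or range inhibiting binding by 50%.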
# [2] = tested on: human MLR, peripheral blood mononuclear cells; experiment: Inhibition of the mixed lymphocyte reaction (MLR), tritiated thymidine uptake; format: cell-based; parameters: key: Data are reported as “+” or “−” at a given concentration (in μM); Data are reported as “+” or “−” at a given concentration (in μM)
# Procedure: Assay to Determine Inhibition the Mixed Lymphocyte Reaction
# As discussed above, ICAM-1 is necessary for effective cellular interactions during an immune response mediated through LFA-1-dependent cell adhesion. When lymphocytes from two unrelated individuals are cultured together, blast transformation and cell proliferation of the lymphocytes are observed. This response is known as a mixed lymphocyte reaction (MLR) and is analogous to the response of lymphocytes to the 10 addition of antigens or mitogens (Immunology: The Science of Self-Nonself Discrimination; Klein, J., Ed.; John Wiley & Sons: NY, 1982, pp 453-458).
# This assay protocol is used to determine the effect of a test compound on the human MLR.
# Description of Assay Protocol:
# Peripheral blood is obtained from normal, healthy donors by venipuncture. The blood is collected in heparinized tubes and diluted 1:1 at room temperature with Puck's G (GIBCO) balanced salt solution (BSS). The blood mixture (20 mL) is layered over 15 mL of a Ficoll/Hypaque density gradient (Pharmacia, density=1.078, room temperature) and centrifuged at 1000·g for 20 minutes. The interface is then collected and washed 3 times in Puck's G. The cells are counted on a hemocytometer and resuspended in RPMI 1640 culture medium (GIBCO) containing 0.5% of gentamicin, 1 mM L-glutamine (GICO) and 5% heat inactivated (56° C., 30 min) human AB sera (Flow Laboratories) (hereafter referred to as RPMI-culture medium).
# Stimulator cells (cells that have been treated with irradiation so that they are unable to proliferate) from a separate donor are cultured with the responder cells at the same concentration. Test compound is added to wells at various concentrations. The total volume per culture is 0.2 mL. Controls include compound vehicle alone (DMSO), responder cells alone, and stimulator cells alone. The culture plates are incubated at 37° C. in a 5% CO2-humidified air atmosphere for 5 days.
# The wells are pulsed with 0.5 μCi of tritiated thymidine (^3HT) (New England Nuclear) for the last 18 h of culture. In some cases a two-way MLR can be performed. The protocol is the same except that the second donor's cells are not inactivated by irradiation.
# The cells are harvested onto glass fiber filters using an automated multiple sample harvester (Skatron, Norway), and rinsed with water and methanol. The filters are oven dried and counted in Aquasol in a Beckman (LS-3801) liquid scintillation counter.
# Data are reported as “+” or “−” at a given concentration (in μM).
# [3] = molecular target: T1, interaction of ICAM-1 with the Leukointegrin CD18/CD11a (LFA-1) (Homo sapiens, UniProt P05107+P20701); experiment: Assay to determine inhibition of LFA-1 binding to ICAM-1 (immunopurified LFA-1 on plate-bound sICAM-1, ELISA readout)
# T1 construct: endogenous in cells; sICAM-1: made in house, secreted from transfected CHO DUX cells
# T1 sequence (P20701 26-1170): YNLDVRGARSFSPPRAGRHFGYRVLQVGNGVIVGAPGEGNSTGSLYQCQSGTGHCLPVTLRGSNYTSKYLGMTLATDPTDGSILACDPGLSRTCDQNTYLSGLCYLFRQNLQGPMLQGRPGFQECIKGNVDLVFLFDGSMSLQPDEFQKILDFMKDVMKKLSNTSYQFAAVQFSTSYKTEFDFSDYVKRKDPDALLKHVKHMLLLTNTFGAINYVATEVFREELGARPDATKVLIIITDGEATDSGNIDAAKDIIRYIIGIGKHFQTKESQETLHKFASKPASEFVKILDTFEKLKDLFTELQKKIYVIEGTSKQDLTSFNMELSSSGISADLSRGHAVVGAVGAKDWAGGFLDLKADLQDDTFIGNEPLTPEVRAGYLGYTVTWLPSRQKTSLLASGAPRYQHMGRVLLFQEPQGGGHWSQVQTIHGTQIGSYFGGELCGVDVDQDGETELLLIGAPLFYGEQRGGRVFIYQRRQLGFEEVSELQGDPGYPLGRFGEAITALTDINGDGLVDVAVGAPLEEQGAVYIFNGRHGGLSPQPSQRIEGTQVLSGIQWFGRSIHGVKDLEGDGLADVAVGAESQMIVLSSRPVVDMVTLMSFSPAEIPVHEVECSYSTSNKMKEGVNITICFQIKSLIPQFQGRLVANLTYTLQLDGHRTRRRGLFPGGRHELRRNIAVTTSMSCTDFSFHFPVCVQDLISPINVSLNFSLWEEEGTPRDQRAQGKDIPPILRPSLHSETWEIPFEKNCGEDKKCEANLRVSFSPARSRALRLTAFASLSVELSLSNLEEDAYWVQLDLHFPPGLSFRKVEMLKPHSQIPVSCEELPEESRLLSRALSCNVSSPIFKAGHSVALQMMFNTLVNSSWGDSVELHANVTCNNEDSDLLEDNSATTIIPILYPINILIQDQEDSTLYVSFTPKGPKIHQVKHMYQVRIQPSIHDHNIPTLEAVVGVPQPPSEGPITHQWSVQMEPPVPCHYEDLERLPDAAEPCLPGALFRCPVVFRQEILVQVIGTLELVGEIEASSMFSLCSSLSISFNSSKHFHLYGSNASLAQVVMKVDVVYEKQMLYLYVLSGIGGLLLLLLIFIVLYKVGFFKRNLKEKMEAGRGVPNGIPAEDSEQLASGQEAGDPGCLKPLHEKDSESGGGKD
# T1 sequence (P05107 23-769): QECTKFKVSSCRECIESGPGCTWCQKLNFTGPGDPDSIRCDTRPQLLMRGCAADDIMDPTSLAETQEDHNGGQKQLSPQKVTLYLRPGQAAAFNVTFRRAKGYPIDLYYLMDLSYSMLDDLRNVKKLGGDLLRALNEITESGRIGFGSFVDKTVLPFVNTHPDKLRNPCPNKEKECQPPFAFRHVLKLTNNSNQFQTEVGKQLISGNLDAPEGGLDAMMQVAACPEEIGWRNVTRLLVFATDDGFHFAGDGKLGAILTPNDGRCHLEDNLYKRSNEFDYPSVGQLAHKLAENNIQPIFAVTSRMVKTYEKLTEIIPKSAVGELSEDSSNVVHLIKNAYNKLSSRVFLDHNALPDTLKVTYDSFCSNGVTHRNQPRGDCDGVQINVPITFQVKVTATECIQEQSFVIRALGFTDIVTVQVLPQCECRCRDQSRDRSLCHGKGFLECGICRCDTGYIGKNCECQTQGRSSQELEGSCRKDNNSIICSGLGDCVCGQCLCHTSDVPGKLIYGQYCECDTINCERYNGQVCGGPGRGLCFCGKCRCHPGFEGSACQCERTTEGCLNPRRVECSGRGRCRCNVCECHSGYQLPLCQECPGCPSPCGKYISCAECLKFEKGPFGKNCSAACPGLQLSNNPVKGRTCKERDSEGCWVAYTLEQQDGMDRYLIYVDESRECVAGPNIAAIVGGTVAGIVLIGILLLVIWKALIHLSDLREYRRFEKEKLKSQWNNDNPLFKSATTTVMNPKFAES
# Excerpt: Assay to Determine Inhibition of LFA-1 Binding to ICAM-1 Purpose of Assay: This assay protocol is designed to study the direct antagonism, by a test compound, of the interaction of the CAM, ICAM-1 with the Leukointegrin CD18/CD11a (LFA-1). […] After collection and neutralization of fractions from the TS2/4 column, samples are pooled and precleared with Protein G agarose. […] Wells are washed 3 times with Diluting Buffer. The bound LFA-1 is detected by the addition of a polyclonal antibody directed against a peptide corresponding to the CD18 cytoplasmic tail in a 1:100 dilution with Diluting Buffer and 1% BSA and allowed to incubate for 45 min at 37° C. Wells are washed 3 times with Diluting Buffer and the bound polyclonal antibody is detected by the addition of a 1:4000 dilution of horse radish peroxidase conjugated to goat immunoglobulin directed against rabbit immunoglobulin. […] The lack of the addition of LFA-1 to the binding assay is used as a background control for all samples. A dose-response curve is obtained for all test compounds. Results of these tests are reported as Kd's in μM.
# [4] = tested on: cell bound fibronectin receptor (VLA4) with fibronectin, SKW3 cells; experiment: Inhibition of SKW3 cell binding to fibronectin (selectivity counter-assay); format: cell-based, human; conditions: for IC50: read-out: Assay to Detect SKW3 Cells Binding to FIBRONECTIN IC50
# Summary of the method: (§1)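 Compound-treated, PMA-stimulated human T-cell line SKW3 (50 μg/mL PMA final) allowed to adhere for 2 h at 37° C to wells coated with sICAM-1 at 40 μg/mL or fibronectin at 100 μg/mL. After gentle RPMI wash, 50% inhibition concentration or range reported in μM.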
# [5] = tested on: cell bound form of LFA-1 (CD18, CD11a) with ICAM-1, SKW3 cells; experiment: Inhibition of SKW3 cell binding to ICAM-1 (PMA-stimulated); format: cell-based, human; conditions: Homo sapiens, read-out: Assay to Detect SKW3 Cells Binding to ICAM IC50
# Summary of the method: as §1
# [6] = values marked e approximated from incomplete dose-response curve
# [7] = values marked c: no inhibition observed up to highest dose
# [8] = SKW3, values marked c: no inhibition observed up to highest dose
# [9] = No inh = no inhibition observed up to highest dose, exact quantification not always possible due to intrinsic toxicity
SMILES,IC50 ([1]; Homo sapiens) [nM],Mixed Lymphocyte Reaction MLR +/− ([2]; at 25 μM),Cellular Toxicity Assay MTT LD50 (SKW3 cells) [µM],"Kd [3, 6] [nM]","Assay to Detect SKW3 Cells Binding to FIBRONECTIN IC50 [4, 7]","IC50 [5, 8] [nM]",IC50 [1] [nM],Mixed Lymphocyte Reaction MLR +/− ([2]; at 50 μM),Kd [3] [nM],"IC50 ([4]; Homo sapiens, SKW3, No inh = no inhibition observed up to highest dose, exact quantification not always possible due to intrinsic toxicity) [nM]",IC50 ([5]; SKW3) [nM],"Assay to Detect SKW3 Cells Binding to FIBRONECTIN IC50 [4, 9]","IC50 [4, 7] [nM]"
C[C@H]1C(=O)N(c2cc(Cl)cc(Cl)c2)C(=O)[C@]1(C)Cc1ccc(Br)cc1 [Example 72],1400,+(25),>363,60,No inh^c,20000 to 40000,–,–,–,–,–,–,–
C[C@]1(Cc2ccc(C(=O)c3ccccc3)cc2)NC(=O)N(c2cc(Cl)cc(Cl)c2)C1=O [Example 215],–,–,100 to 200,–,–,–,3100,+(50),200,> 100000,50000 to 100000,–,–
CN1C(=O)N(c2cc(Cl)cc(Cl)c2)C(=O)C1(C)Cc1ccc(F)cc1 (stereo not drawn) [Example 146],400,–,100,130,No inh^c,13000 to 25000,–,+(50),–,–,–,–,–
C[C@@]1(Cc2ccc(Br)cc2)C(=O)N(c2cc(Cl)cc(Cl)c2)C(=O)N1CCO [Example 225],200,+(25),50 to 100,–,–,–,–,–,630,–,3000 to 4000,No inh^c,–
C[C@@]1(Cc2ccc(Br)cc2)C(=O)N(c2cc(Cl)cc(Cl)c2)C(=O)N1CCCCCC(=O)O [Example 226],1600,+(25),100,–,–,–,–,–,70,–,3000 to 6000,No inh^c,–
C[C@@]1(Cc2ccc(Br)cc2)C(=O)N(c2cc(Cl)cc(Cl)c2)C(=O)N1CCCC(=O)O [Example 227],3100,–,200 to 400,–,–,–,–,+(50),180,–,25000,No inh^c,–
CCCN1C(=O)N(c2cc(Cl)cc(Cl)c2)C(=O)[C@@]1(C)Cc1ccc(Br)cc1 [Example 98],3000,–,>340,55,No inh^c,5000 to 10000,–,+(50),–,–,–,–,–
CN1C(=O)N(c2cc(Cl)cc(Cl)c2)C(=O)C1(C)Cc1ccc(C#N)cc1 (stereo not drawn) [Example 151],200,+(25),>410,46,No inh^c,5000 to 10000,–,–,–,–,–,–,–
CN1C(=O)N(c2cc(C(F)(F)F)cc(C(F)(F)F)c2)C(=O)C1(C)Cc1ccccc1 (stereo not drawn) [Example 83],6000,–,250 to 500,300,–,13000 to 25000,–,+(50),–,–,–,–,> 200000
CN1C(=O)N(c2cc(Cl)cc(Cl)c2)C(=O)[C@@]1(C)Cc1ccc(-c2ccccc2)cc1 [Example 182],20,+(25),200 to 400,50,No inh^c,3000 to 6000,–,–,–,–,–,–,–
CN1C(=O)N(c2cc(Cl)cc(Cl)c2)C(=O)C1Cc1ccc(Br)cc1 (stereo not drawn) [Example 92],3100,+(25),63 to 125,120,No inh^c,13000 to 25000,–,–,–,–,–,–,–
CC1(Cc2ccc(Br)cc2)C(=O)N(c2cc(Cl)cc(Cl)c2)C(=O)N1C1CC1 (stereo not drawn) [Example 169],1500,+(25),160 to 230,50,No inh^c,12000 to 25000,–,–,–,–,–,–,–

# From USRE38132E1, “Phenylpyrrolidines, phenylimidazolidines,3-phenyl-1,3-oxizolidines and 3-phenyl-1,3-thiazolidines and their use in the treatment of inflammatory disease” (Boehringer Ingelheim Pharmaceuticals, Inc., priority 1997, dated 2003)
